In PubChem BioAssay (NCI) one finds TGI data, which are given here for 16 compounds.

Some test systems named below: HCT-15 colon; EKVX NSCLC; A498 renal; SK-OV-3 ovarian; OVCAR-5 ovarian; SK-MEL-28 melanoma; UO-31 renal; 786-0 renal; OVCAR-4 ovarian.
Holding throughout (experiment): NCI-60 cell line screen, 48 h

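Cells were grown in 96-well plates and exposed to each compound for 48 hours at five concentrations; endpoints were interpolated linearly between bracketing concentrations, or set to the highest concentration if not reached. Definition used: TGI = concentration required for complete inhibition of growth.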

In the case of `COC(=O)c1nc(N)nc(C(=O)OC)c1C(=O)c1ccccc1`, the TGI in the test on HCT-15 colon, in the test with EKVX NSCLC, with A498 renal, with SK-OV-3 ovarian, in the test on OVCAR-5 ovarian and in the test with SK-MEL-28 melanoma was over 100 µM each time. Besides, the TGI in the test with UO-31 renal and in the test on 786-0 renal was over 100 µM throughout.
As for `Cc1cc(Cl)ccc1NC(=O)C(=O)Cc1occc(=O)c1O`, the TGI in the test with HCT-15 colon, in the test with EKVX NSCLC, in the test on A498 renal, in the test with SK-OV-3 ovarian, in the test on OVCAR-5 ovarian and with SK-MEL-28 melanoma was over 100 µM throughout. The TGI in the test on UO-31 renal, in the test on OVCAR-4 ovarian and with 786-0 renal was over 100 µM throughout.
As to `CC1=C(C(=O)Nc2ccccc2C)C(c2ccccc2C)C(C(=O)Nc2ccccc2C)=C(C)N1`, the TGI in the test with HCT-15 colon is 40.3 µM; with EKVX NSCLC it was 42.3 µM; in the test with A498 renal, over 100 µM; in the test on OVCAR-5 ovarian, 66.3 µM; in the test with SK-MEL-28 melanoma, 42.5 µM; in the test on UO-31 renal, 30.2 µM. For the same compound, the figures for the TGI in the test on OVCAR-4 ovarian and in the test with 786-0 renal were 53.9 µM and 34.5 µM, respectively.
For the compound `O=C(CC(=O)c1ccccc1)C(=O)NC12CC3CC(CC(C3)C1)C2`, the TGI with HCT-15 colon was over 54.3 µM; in the test on EKVX NSCLC, over 100 µM; with A498 renal, over 100 µM; with SK-OV-3 ovarian, over 100 µM; in the test with OVCAR-5 ovarian, over 100 µM; with SK-MEL-28 melanoma it was over 100 µM. In addition, the figures for the TGI in the test with UO-31 renal, with OVCAR-4 ovarian and with 786-0 renal were over 100 µM, over 100 µM and 99.7 µM, respectively.
For `COc1cc(/C=C\c2ccc(Cl)cc2)cc(OC)c1OC`, the TGI is 14.4 µM in the test with HCT-15 colon; over 87.5 µM in the test with EKVX NSCLC; 1.25 µM with A498 renal; 89.3 µM in the test on SK-OV-3 ovarian; over 31.6 µM with OVCAR-5 ovarian; over 67.5 µM in the test with SK-MEL-28 melanoma. The TGI in the test on UO-31 renal was over 43.6 µM; in the test on OVCAR-4 ovarian it was over 100 µM; in the test with 786-0 renal, 20.3 µM.
Take `O=C(O)c1cc(=O)c2cc(C(=O)c3cccs3)c(Cl)c(Cl)c2o1`: the TGI in the test on EKVX NSCLC, in the test with A498 renal, in the test with SK-OV-3 ovarian, with OVCAR-5 ovarian, in the test on SK-MEL-28 melanoma and in the test on UO-31 renal was over 100 µM throughout. Besides, the TGI with OVCAR-4 ovarian and with 786-0 renal was over 100 µM in each case.
As for `CCOC(=O)c1cn(CC)c2cc3c(cc2c1=O)SCS3`, the TGI in the test on HCT-15 colon, in the test on EKVX NSCLC, with SK-OV-3 ovarian, in the test on OVCAR-5 ovarian, in the test on SK-MEL-28 melanoma and with UO-31 renal was over 100 µM in each case. Further, the TGI with OVCAR-4 ovarian and with 786-0 renal was over 100 µM in each case.
Consider `CCOC(=O)/C=C1\Oc2ccccc2C1(C)O` (stereo not drawn), for which the TGI in the test on HCT-15 colon, in the test with EKVX NSCLC, in the test with A498 renal, in the test on SK-OV-3 ovarian, in the test on OVCAR-5 ovarian and in the test on SK-MEL-28 melanoma was over 100 µM each time. For the same compound, the TGI in the test on UO-31 renal, in the test on OVCAR-4 ovarian and in the test on 786-0 renal was over 100 µM throughout.
As for `CC(=O)O[C@H]1CC[C@@]2(C)C(=C/C(=N\[N+](=O)[O-])[C@H]3C4CCC([C@H](C)CCCC(C)C)[C@@]4(C)CCC32)C1` (stereo partly drawn), the TGI with HCT-15 colon, in the test with EKVX NSCLC, in the test on A498 renal, in the test on SK-OV-3 ovarian, with OVCAR-5 ovarian and in the test with SK-MEL-28 melanoma was over 100 µM throughout. Also, the TGI in the test on UO-31 renal, in the test with OVCAR-4 ovarian and in the test on 786-0 renal was over 100 µM each time.
Turning to `O=c1[nH]cnc2c1ncn2CCCCO`, the TGI with HCT-15 colon, in the test with EKVX NSCLC, in the test with A498 renal, in the test with OVCAR-5 ovarian, with SK-MEL-28 melanoma and with UO-31 renal was over 100 µM throughout. For the same compound, the TGI with OVCAR-4 ovarian and in the test on 786-0 renal was over 100 µM throughout.
Consider `CCSC(=O)C1(C)OC2CCCCC2C1=O` (stereo not drawn), for which the TGI in the test on HCT-15 colon, in the test on A498 renal, with SK-OV-3 ovarian, with SK-MEL-28 melanoma, with UO-31 renal and with OVCAR-4 ovarian was over 100 µM each time. In the test on 786-0 renal, this compound returned a TGI of over 100 µM.
Consider `CC(C)c1cccc(C(C)C)c1NC(=O)C(=O)C1SC(=S)NC1=O` (stereo not drawn), for which the TGI with HCT-15 colon, with EKVX NSCLC, with A498 renal, with SK-OV-3 ovarian, with OVCAR-5 ovarian and in the test on SK-MEL-28 melanoma was over 100 µM each time. Moreover, the TGI in the test on UO-31 renal, in the test with OVCAR-4 ovarian and with 786-0 renal was over 100 µM in each case.
Regarding `CCCCCCCCCCCCCCCCCc1nnc(N)o1`, the TGI in the test with HCT-15 colon, in the test with SK-OV-3 ovarian, in the test with OVCAR-5 ovarian, in the test on SK-MEL-28 melanoma, in the test on UO-31 renal and in the test on OVCAR-4 ovarian was over 100 µM throughout. In the test on 786-0 renal, this compound displayed a TGI of over 100 µM.
Turning to `O=c1[nH]c2c(c3ccccc13)CCc1ccccc1-2`, the TGI in the test on HCT-15 colon, with EKVX NSCLC, in the test with SK-OV-3 ovarian, in the test with OVCAR-5 ovarian, in the test with SK-MEL-28 melanoma and in the test with UO-31 renal was over 100 µM each time. The TGI with OVCAR-4 ovarian and in the test with 786-0 renal was over 100 µM in each case.
Regarding `O=C1/C(=C\c2ccccc2)c2ccccc2N1/N=C\c1ccccc1`, the TGI in the test on HCT-15 colon, with EKVX NSCLC, with A498 renal, with SK-OV-3 ovarian, with OVCAR-5 ovarian and with SK-MEL-28 melanoma was over 100 µM each time. The TGI in the test on UO-31 renal, in the test on OVCAR-4 ovarian and in the test on 786-0 renal was over 100 µM throughout.
For the compound `N#CC(C(=O)CCC(=O)Nc1ccc(Cl)c(Cl)c1)c1ccc(Cl)cc1` (stereo not drawn), the TGI in the test with HCT-15 colon, with EKVX NSCLC, with A498 renal, in the test with OVCAR-5 ovarian, with SK-MEL-28 melanoma and in the test with UO-31 renal was over 100 µM in each case. Further, the TGI in the test with OVCAR-4 ovarian and in the test on 786-0 renal was over 100 µM in each case.
